Consider four compounds from patent publication US9126999B2, “Tetrahydropyrazolopyrimidine compounds” (EISAI R&D MANAGEMENT CO., LTD., priority 2012, dated 2015).

This assay concerns the target T1, Human TLR8 (Homo sapiens, UniProt Q9NR97).
T1 construct: host or cells: HEK-293 stably expressing human TLR8, then transfected with pNiFty2(NF-kappaB)-luciferase
T1 sequence (Q9NR97 27-1041): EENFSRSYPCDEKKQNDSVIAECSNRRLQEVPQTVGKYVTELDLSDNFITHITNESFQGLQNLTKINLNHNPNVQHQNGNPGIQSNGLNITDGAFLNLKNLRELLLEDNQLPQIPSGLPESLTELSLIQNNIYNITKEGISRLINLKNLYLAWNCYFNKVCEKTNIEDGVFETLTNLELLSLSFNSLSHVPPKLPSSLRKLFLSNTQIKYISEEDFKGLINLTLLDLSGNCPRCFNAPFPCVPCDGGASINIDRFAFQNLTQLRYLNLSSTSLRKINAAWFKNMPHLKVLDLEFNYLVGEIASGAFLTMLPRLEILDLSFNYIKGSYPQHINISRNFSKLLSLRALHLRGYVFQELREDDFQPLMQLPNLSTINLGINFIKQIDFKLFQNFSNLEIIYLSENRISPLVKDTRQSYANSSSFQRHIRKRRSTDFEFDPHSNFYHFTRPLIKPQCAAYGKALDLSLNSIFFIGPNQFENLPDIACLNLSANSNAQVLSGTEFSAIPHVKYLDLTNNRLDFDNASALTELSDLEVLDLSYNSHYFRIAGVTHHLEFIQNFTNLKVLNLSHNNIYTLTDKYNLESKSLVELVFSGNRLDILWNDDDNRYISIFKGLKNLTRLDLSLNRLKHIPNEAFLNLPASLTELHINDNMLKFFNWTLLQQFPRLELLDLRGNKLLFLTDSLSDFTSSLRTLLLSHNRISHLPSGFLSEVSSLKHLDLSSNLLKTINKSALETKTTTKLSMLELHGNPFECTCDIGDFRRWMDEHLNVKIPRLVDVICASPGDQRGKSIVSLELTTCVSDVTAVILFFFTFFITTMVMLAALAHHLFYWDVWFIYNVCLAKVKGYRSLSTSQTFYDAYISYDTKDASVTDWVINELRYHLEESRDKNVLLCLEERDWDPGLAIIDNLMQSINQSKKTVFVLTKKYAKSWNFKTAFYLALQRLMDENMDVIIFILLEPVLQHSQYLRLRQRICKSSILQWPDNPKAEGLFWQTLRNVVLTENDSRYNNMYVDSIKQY
Nature of the assay: HEK-293 NF-kappaB luciferase reporter assay, CL097 stimulus. It is filed as cell-based. The text has this:
In vitro pharmacology: HEK-293 cells (ATCC) were engineered to stably express a NF-kappaB transcription factor inducible E-selectin (ELAM-1) luciferase reporter derived from the plasmid pGL3 (Promega) containing base pairs −2241 bp to −254 bp from the promoter of the human E-selectin gene (Accession No. NM_000450). These cells were then subsequently engineered to stably and individually express human TLR4, TLR7 or TLR9 full-length ORF cDNAs. Human TLR4 cDNA (Accession No. NM_138554) was cloned into pcDNA 3.0 expression vector (Invitrogen). TLR4 transfected cells were also engineered to express human MD-2 co-receptor [MD-2 cDNA (Accession No. NM_015364) was cloned into the pEF-BOS vector] and were supplemented with 10 nM soluble CD14 (R&D Systems) in the media to optimize LPS responsiveness. Human TLR9 cDNA (Accession No. NM_017442) was cloned into the pBluescript II KS vector (Agilent). Human TLR7 cDNA (Accession No. NM_016562) was obtained from OriGene. HEK-293 cells stably expressing human TLR8 (Accession No. NM_138636) or mouse TLR7 (Accession No. NM_133211) were purchased from InvivoGen and were then stably transfected with pNiFty2(NF-kappaB)-luciferase reporter plasmid (InvivoGen). Each cell type was plated in Dulbecco's modified Eagle's medium (DMEM) containing 10% fetal bovine serum (FBS) at a density of 2.22×10^5 cells/ml into a 384-well plate and incubated for 2 days at 37° C., 5% CO2. Varying concentrations of antagonist compounds were then added. Cells were then incubated for another 30 minutes before adding the appropriate TLR agonist as follows (final concentrations indicated): lipopolysaccharide (LPS; Sigma) at 10 ng/ml for TLR4, CL097 (InvivoGen) at 3 ug/ml for human TLR7 and TLR8 and mouse TLR7, and CpG-2006-2A [sequence: […] (SEQ ID NO: 1) with phosphorothioate backbone, synthesized by Sigma-Aldrich] at 0.6 uM for TLR9.

Where [1] appears, read: human TLR8 in the HEK-293 assay format, read-out: HEK/TLR8 IC50.

Where two headings read alike, the source gives them in different places.

With `Cc1nn(C)cc1[C@H]1C[C@@H](C(F)(F)F)n2nc(-c3ccc(NC(N)=O)cc3)cc2N1` [ER-894596], the IC50 under setting [1] stood at 540 nM.

With `COc1ccc([C@@H]2C[C@H](C(F)(F)F)n3nc(-c4ccc(C(=O)N5CCNCC5)cc4)cc3N2)cc1OC` [ER-892887, (4-((5S,7R)-5-(3,4-dimethoxyphenyl)-7-(trifluoromethyl)-4,5,6,7-tetrahydropyrazolo[1,5-a]pyrimidin-2-yl)phenyl)(piperazin-1-yl)methanone], the IC50 (HEK-293, ligand CL097, analyte NFkB-luciferase, read-out: IC50) is 80 nM.

For `Cc1nn(C)cc1[C@@H]1C[C@H](C(F)(F)F)n2nc(-c3ccc(NC(N)=O)cc3)cc2N1` [ER-894595], the IC50 under setting [1] worked out at 320 nM.

Turning to `COc1ccc([C@@H]2C[C@H](C(F)(F)F)n3nc(-c4ccncc4)cc3N2)cc1OC` [ER-885454], the IC50 under setting [1] is 280 nM.
